Experimental data taken from patent US20090012085A1, “DOSAGE FORMS AND METHODS OF TREATMENT USING A TYROSINE KINASE INHIBITOR” (priority 2005, published 2009).
Where two headings read alike, the source gives them in different places.

Assay: Phase I dose-escalating study, plasma pharmacokinetics in patients with solid tumor
Type: in vivo, human
Conditions: for concentration at 6 h / concentration at 8 h / concentration at 10 h / concentration at 0 h / concentration at 1 h / concentration at 2 h / concentration at 3 h / concentration at 4 h / concentration at 20 h / concentration at 24 h / concentration at 48 h / concentration at 72 h / concentration at 96 h / concentration at 144 h / AUC(0-t) / Cmax / Tmax / half-life: human, plasma; for concentration at 6 h: nominal time 6 h; for concentration at 8 h: nominal time 8 h; for concentration at 10 h: nominal time 10 h; for concentration at 0 h: nominal time 0 h; for concentration at 1 h: nominal time 1 h; for concentration at 2 h: nominal time 2 h; for concentration at 3 h: nominal time 3 h; for concentration at 4 h: nominal time 4 h; for concentration at 20 h: nominal time 20 h; for concentration at 48 h: nominal time 48 h; for concentration at 72 h: nominal time 72 h; for concentration at 96 h: nominal time 96 h; for concentration at 144 h: nominal time 144 h; for AUC(0-t): read-out: AUC(0-24), mean (% CV); for Cmax: read-out: Cmax, mean (% CV); for Tmax: read-out: tmax, mean (% CV); for half-life: read-out: t½, mean (% CV) (converted)
Experimental: Cmax values, or maximum total plasma concentrations, of a compound of formula 1 can be measured according to techniques well known to those skilled in the art. For example, after a compound of formula 1 has been administered to a mammal, blood samples can be taken at fixed time points over a period of time (e.g. 24 hours) and the serum or plasma concentration of compound of formula 1 can be measured using standard analytical techniques known in the art. In vivo determinations Cmax can then be made by plotting the serum or plasma concentration of compound of formula 1 along the ordinate (y-axis) against time along the abscissa (x-axis).
The maleate salt of compound 1 was administered to human patients with solid tumor malignancies not amenable to conventional therapies in a Phase I dose-escalating multicenter study. The types of tumor malignancies included colorectal carcinoma, renal cell carcinoma, esophageal carcinoma, thymus carcinoma, mastocytosis, lung cancer and multiple endocrine neoplasia type II. Patients were treated in cohorts of 6 with escalating QD (once per day) doses of the maleate salt of compound 1 under fasting conditions. Each study cycle of 5 weeks consisted of 4 weeks of treatment followed by 1 week of rest (4/1 schedule), or continuous dosing without any rest period.
Full pharmacokinetic profiles were collected on Cycle 1 Day 1 (C1D1), Cycle 1 Day 28 (C1D28), and Cycle 2 Day 28 (C2D28). Preliminary pharmacokinetic parameters for the first 44 patients, i.e. the first 7 dosing groups, were estimated using nominal collection times and quality-controlled, non-quality assured bioanalytical data. The dosage amounts in Table 1A and Table 1B are free base equivalent amounts.

[1] = 25 mg QD, 25 mg QD 4/1 (n = 6), read-out: Mean plasma concentration following the last dose on cycle 1 day 28
[2] = 25 mg, 25 mg QD 4/1 (n = 6), read-out: Mean plasma concentration following the last dose on cycle 1 day 28
[3] = 25 mg, 25 mg QD (4/1), C1D1 (n = 6)
[4] = 25 mg, 25 mg QD (4/1), C1D28 (n = 6)
[5] = 25 mg, 25 mg QD (4/1), C2D28 (n = 5)
[6] = 50 mg QD, 50 mg QD 4/1 (n = 5), read-out: Mean plasma concentration following the last dose on cycle 1 day 28
[7] = 50 mg, 50 mg QD 4/1 (n = 5), read-out: Mean plasma concentration following the last dose on cycle 1 day 28
[8] = 50 mg, 50 mg QD (4/1), C1D1 (n = 6)
[9] = 50 mg, 50 mg QD (4/1), C1D28 (n = 5)
[10] = 50 mg, 50 mg QD (4/1), C2D28 (n = 3)
[11] = 100 mg QD, 100 mg QD 4/1 (n = 6), read-out: Mean plasma concentration following the last dose on cycle 1 day 28
[12] = 100 mg QD, 100 mg QD Continuous (n = 4), read-out: Mean plasma concentration following the last dose on cycle 1 day 28
[13] = 100 mg, 100 mg QD 4/1 (n = 6), read-out: Mean plasma concentration following the last dose on cycle 1 day 28
[14] = 100 mg, 100 mg QD (4/1), C1D1 (n = 7)
[15] = 100 mg, 100 mg QD (4/1), C1D28 (n = 6)
[16] = 100 mg, 100 mg QD (4/1), C2D28 (n = 4)
[17] = 100 mg, 100 mg QD (continuous), C1D1 (n = 6)
[18] = 100 mg, 100 mg QD (continuous), C1D28 (n = 6)
[19] = 100 mg, 100 mg QD (continuous), C2D28 (n = 4)
[20] = 100 mg, 100 mg QD Continuous (n = 4), read-out: Mean plasma concentration following the last dose on cycle 1 day 28

For Cc1[nH]c(/C=C2\C(=O)Nc3ccc(F)cc32)c(C)c1C(=O)NC[C@H](O)CN1CCOCC1 [compound 1, 5-[(Z)-(5-fluoro-2-oxo-1,2-dihydro-3H-indol-3-ylidene)methyl]-N-[(2S)-2-hydroxy-3-morpholin-4-ylpropyl]-2,4-dimethyl-1H-pyrrole-3-carboxamide], the “drug accumulation in plasma from cycle 1 to cycle 2” value (100 mg QD continuous, Cmax and AUC0-24 of C1D28 vs C2D28) was “no drug accumulation”, the “time of the longer elimination phase after dosing” value (4/1 schedule, after the last dose on Day 28) was “about 72 hours” and the “change in the overall plasma elimination profile” value (across the 25- to 250-mg groups) was “no change”. The “time of absorption after dosing” value (administered in the fasted state) was no more than 6 h, the “dose linearity of pharmacokinetics” value (first 44 patients, 25 to 250 mg) was “generally dose-linear pharmacokinetics” and the concentration at 6 h [1] was 50.3 ng/mL. For the same compound, the concentration at 8 h [1] was 41.3 ng/mL, the concentration at 10 h [1] was 36.8 ng/mL and the concentration at 0 h [2] was 22.2 ng/mL. For the same compound, the concentration at 1 h [2] was 50.1 ng/mL, the concentration at 2 h [2] was 46.7 ng/mL and the concentration at 3 h [2] was 47 ng/mL. It also gave a concentration at 4 h [2] of 58.3 ng/mL, a concentration at 20 h [2] of 19.5 ng/mL and a concentration at 24 h (25 mg, 25 mg QD 4/1 (n = 6), nominal time 24 h, read-out: Mean plasma concentration following the last dose on cycle 1 day 28) of 21.1 ng/mL. The concentration at 48 h [2] was 6.24 ng/mL, the concentration at 72 h [2] was 2.61 ng/mL and the concentration at 96 h [2] was 1.58 ng/mL. The concentration at 144 h [2] was 0.63 ng/mL, the AUC(0-t) [3] was 547 ng·h/mL and the concentration at 24 h (25 mg, 25 mg QD (4/1), C1D1 (n = 6), read-out: C(trough, 24 h), mean (% CV)) was 13.8 ng/mL. It also gave a Cmax [3] of 55.1 ng/mL, a Tmax [3] of 2.8 h and a half-life [3] of 11.9 h. It also gave an AUC(0-t) [4] of 809 ng·h/mL, a concentration at 24 h (25 mg, 25 mg QD (4/1), C1D28 (n = 6), read-out: C(trough, 24 h), mean (% CV)) of 21.1 ng/mL and a Cmax [4] of 72.9 ng/mL. The Tmax [4] was 2.7 h, the half-life [4] was 24.8 h and the Cmax [5] was 61.8 ng/mL. It also gave a Tmax [5] of 3.2 h, a half-life [5] of 17.7 h and a concentration at 3 h [6] of 85.6 ng/mL. The concentration at 6 h [6] was 71.3 ng/mL, the concentration at 8 h [6] was 68.6 ng/mL and the concentration at 10 h [6] was 59.4 ng/mL. The concentration at 0 h [7] was 37.2 ng/mL, the concentration at 1 h [7] was 72.3 ng/mL and the concentration at 2 h [7] was 84.5 ng/mL. For the same compound, the concentration at 4 h [7] was 81.1 ng/mL, the concentration at 20 h [7] was 30.5 ng/mL and the concentration at 24 h (50 mg, 50 mg QD 4/1 (n = 5), nominal time 24 h, read-out: Mean plasma concentration following the last dose on cycle 1 day 28) was 24.3 ng/mL. It also gave a concentration at 48 h [7] of 25.4 ng/mL, a concentration at 72 h [7] of 7.89 ng/mL and a concentration at 96 h [7] of 17 ng/mL. For the same compound, the concentration at 144 h [7] was 3.27 ng/mL, the AUC(0-t) [8] was 888 ng·h/mL and the concentration at 24 h (50 mg, 50 mg QD (4/1), C1D1 (n = 6), read-out: C(trough, 24 h), mean (% CV)) was 20.8 ng/mL. For the same compound, the Cmax [8] was 84.6 ng/mL, the Tmax [8] was 2.8 h and the half-life [8] was 10.8 h. For the same compound, the AUC(0-t) [9] was 1350 ng·h/mL, the concentration at 24 h (50 mg, 50 mg QD (4/1), C1D28 (n = 5), read-out: C(trough, 24 h), mean (% CV)) was 50.8 ng/mL and the Cmax [9] was 126 ng/mL. For the same compound, the Tmax [9] was 6.6 h, the half-life [9] was 24 h and the AUC(0-t) [10] was 1790 ng·h/mL. For the same compound, the concentration at 24 h (50 mg, 50 mg QD (4/1), C2D28 (n = 3), read-out: C(trough, 24 h), mean (% CV)) was 44.2 ng/mL, the Cmax [10] was 173 ng/mL and the Tmax [10] was 3.3 h. For the same compound, the half-life [10] was 18.9 h, the concentration at 3 h [11] was 337 ng/mL and the concentration at 4 h [11] was 344 ng/mL. It also gave a concentration at 6 h [11] of 312 ng/mL, a concentration at 8 h [11] of 261 ng/mL and a concentration at 10 h [11] of 208 ng/mL. It also gave a concentration at 3 h [12] of 460 ng/mL, a concentration at 4 h [12] of 560 ng/mL and a concentration at 6 h [12] of 707 ng/mL. For the same compound, the concentration at 8 h [12] was 395 ng/mL, the concentration at 10 h [12] was 566 ng/mL and the concentration at 0 h [13] was 121 ng/mL. It also gave a concentration at 1 h [13] of 218 ng/mL, a concentration at 2 h [13] of 326 ng/mL and a concentration at 20 h [13] of 311 ng/mL. The concentration at 24 h (100 mg, 100 mg QD 4/1 (n = 6), nominal time 24 h, read-out: Mean plasma concentration following the last dose on cycle 1 day 28) was 111 ng/mL, the concentration at 48 h [13] was 60.8 ng/mL and the concentration at 72 h [13] was 16.1 ng/mL. For the same compound, the concentration at 96 h [13] was 9.96 ng/mL, the concentration at 144 h [13] was 2.94 ng/mL and the AUC(0-t) [14] was 2480 ng·h/mL. For the same compound, the concentration at 24 h (100 mg, 100 mg QD (4/1), C1D1 (n = 7), read-out: C(trough, 24 h), mean (% CV)) was 86.8 ng/mL, the Cmax [14] was 270 ng/mL and the Tmax [14] was 2.6 h. The half-life [14] was 12.5 h, the AUC(0-t) [15] was 6050 ng·h/mL and the concentration at 24 h (100 mg, 100 mg QD (4/1), C1D28 (n = 6), read-out: C(trough, 24 h), mean (% CV)) was 111 ng/mL. It also gave a Cmax [15] of 413 ng/mL, a Tmax [15] of 2.7 h and a half-life [15] of 22 h. The AUC(0-t) [16] was 2800 ng·h/mL, the concentration at 24 h (100 mg, 100 mg QD (4/1), C2D28 (n = 4), read-out: C(trough, 24 h), mean (% CV)) was 156 ng/mL and the Cmax [16] was 181 ng/mL. The Tmax [16] was 13.5 h, the half-life [16] was 23 h and the AUC(0-t) [17] was 1800 ng·h/mL. For the same compound, the concentration at 24 h (100 mg, 100 mg QD (continuous), C1D1 (n = 6), read-out: C(trough, 24 h), mean (% CV)) was 34.1 ng/mL, the Cmax [17] was 171 ng/mL and the Tmax [17] was 4.3 h. For the same compound, the half-life [17] was 12.9 h, the AUC(0-t) [18] was 2990 ng·h/mL and the concentration at 24 h (100 mg, 100 mg QD (continuous), C1D28 (n = 6), read-out: C(trough, 24 h), mean (% CV)) was 63 ng/mL. It also gave a Cmax [18] of 255 ng/mL, a Tmax [18] of 3.3 h and a half-life [18] of 11.4 h. For the same compound, the AUC(0-t) [19] was 3230 ng·h/mL, the concentration at 24 h (100 mg, 100 mg QD (continuous), C2D28 (n = 4), read-out: C(trough, 24 h), mean (% CV)) was 62.8 ng/mL and the Cmax [19] was 250 ng/mL. The Tmax [19] was 3.7 h, the half-life [19] was 13.8 h and the concentration at 0 h [20] was 284 ng/mL. The concentration at 1 h [20] was 232 ng/mL, the concentration at 2 h [20] was 524 ng/mL and the concentration at 20 h [20] was 265 ng/mL. It also gave a concentration at 24 h (100 mg, 100 mg QD Continuous (n = 4), nominal time 24 h, read-out: Mean plasma concentration following the last dose on cycle 1 day 28) of 246 ng/mL.
